Data as given in US20140275711A1, “1-(Arylmethyl)-5,6,7,8-tetrahydroquinazolline-2,4-diones and Analogs and the Use Thereof” (Impact Therapeutics, Inc., priority 2011, published 2014).
Where two headings read alike, the source gives them in different places.

Assays:
[1] = system: SW620 human colorectal cancer cells; assay: Potentiation of the growth inhibiting activity of MMS, MTT based cell viability assay; conditions: read-out: Compounds potentiate the growth inhibiting activity of MMS (IC50)
Experimental: The synergistic potentiation effect of PARP inhibitors on the growth inhibiting activity of DNA damaging anticancer drugs such as methyl methanesulphonate (MIMS) were measured with SW620 human colorectal cancer cells (Shanghai Cancer Institute) using a MTT based cell viability assay. SW620 cells were grown and maintained in RPMI1640 (Gibco) medium supplemented with 10% FBS (Hyclone). In the first day of experiment, 4000 cells were seeded to each well of a 96-well cell culture plate and incubated at 37° C. and 5% CO2 in a cell culture incubator overnight. In the next day, the cell culture medium was removed. […] The serial dilutions of the reference compounds and the compounds to be tested were made with a 1:3 and 1:10 fashion in DMSO. The 10-fold concentrated solutions of these compounds were made by mixing 10 μl of the serial dilutions in DMSO with 90 μl fresh medium. The final concentration of DMSO in the medium was 1%. The cells were incubated at 37° C. in 5% CO2 cell culture incubator for additional 5 days (120 hours). Afterwards, the 96-well cell culture plate was taken out and 20 μl of MTT solution was added to each well and incubated at 37° C. for 4 h. The medium was removed and 100 μl DMSO was added to each well. The 96-well cell culture plates were shaked adequately for 10 min and readed in a Varioskan Flash plate reader (Thermo Fisher Scientific) at 520 and 690 nm. The data were analyzed by Prism 5 software (GraphPad). The obtained 520 nm absorbance readings substracting corresponding 690 nm reading were analyzed and plotted against the Log scale of the compound concentrations.

[2] = system: Human breast cancer cell line T47D; assay: Potentiation of MMS induced apoptosis, cell based caspase-3 activity assay; conditions: read-out: Compounds potentiate the apoptosis inducing activity of MMS (EC50);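 note: Caspase-3 activity in cell lysates measured by fluorescence (RFU), EC50 fitted from sigmoidal curve of signal versus log compound concentration in presence of MMS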
Experimental: Human breast cancer cell line T47D (Nanjing KeyGEN Biotech. CO., LTD.) was used to determine the potentiation effect of PARP-1 inhibitors on the apoptosis inducing activity of DNA damaging anticancer drugs such as MMS. Intracellular caspase-3 activity was used to measure cell apoptosis. Briefly, T47D cells were grown in DMEM/F12 cell culture medium (Hyclone) supplemented with 0.2 U/ml insulin (Genview) and 10% FBS (Hyclone). A day before experiment, 20000 of T47D cells were seeded to each well of a 96-well cell culture plate and maintained at 37° C. and 5% CO2 in a cell culture incubator overnight. On the day of experiment, cell culture medium was removed. […] The serial dilutions of the compounds to be tested and the reference compounds were made in a 1:3 and 1:10 fashion in DMSO. The 10-fold compound solutions were made by mixing 10 μl DMSO serial dilution solutions with 90 μl fresh growth medium. Twenty four hours later, the cells in the 96-well plates were centrifuged at 1000 g for 5 min and the supernatants were removed. 50 μl lysis buffer (10 mM Tris, pH 7.5, 0.1M NaCl, 1 mM EDTA, 0.01% Triton X-100) was added to each well and the plates were shaked horizontally for 30 min at 4° C. After centrifugation at 1000 g at 4° C. for 10 min, 20 μl of supernatant was transferred from each well to a corresponding well in a 384-well black plate. […] The plates were shaked to uniformly mix the wells and incubated at 37° C. for 3 h. […] The caspase-3 activity induced by the compounds was expressed as a relative fluorescence unit (RFU). The obtained fluorescence readings were analyzed using a commercial graphic software (GraphPad Prism 5) and plotted against the Log value of the compound concentrations. The EC50 values were obtained by fitting the data points with the equation of Y (fluorescence reading)=minimal fluorescence reading+(maximal fluorescence reading−minimal fluorescence reading)/(1+10̂(LogEC50−LogC)), where C is the concentration of the testing compound. The EC50 values were obtained by fitting the data points with S-shaped dose response curve equation (GraphPad Software, Inc).

[3] = system: BRCA-2 deficient CAPAN-1 human pancreatic cancer cells; assay: Cell growth inhibition of BRCA-2 deficient CAPAN-1 cells, MTT based cell viability assay; conditions: Homo sapiens, CAPAN-1, 240 h, read-out: Growth inhibition of CAPAN-1 cells by compounds (IC50)
Experimental: BRCA-2 deficient CAPAN-1 human pancreatic cancer cells were used to test the growth inhibiting activity of substituted 1-(arylmethyl)-5,6,7,8-tetrahydroquinazoline-2,4(1H,3H)-diones. Briefly, CAPAN-1 cells are grown and maintained in IMEM medium supplemented with 20% FBS. The assay takes 10 days to finish. On day 1, 6000 CAPAN-1 cells are seeded to each well of a 96-well plate. The cells are incubated at 37° C. in a CO2 cell culture incubator overnight. […] Ten-fold compound solutions were made by mixing 10 μl DMSO serial dilution solutions with 90 μl fresh growth medium. The cell culture medium was removed and 180 μl fresh media with FBS and 20 μl of compound solutions were added to each well. The final concentration of DMSO was 1%. Cells were then returned to the CO2 cell culture incubator and incubated at 37° C. for two days (day 3 and day 4). On day 5, the same procedure as what was done on day 2 was repeated. Cell culture medium was removed and fresh medium containing serial dilutions of compounds or reference compounds were added. Cells were returned to the CO2 cell culture incubator and incubated for two more days. On day 8, same procedure was repeated again and fresh medium containing the testing compounds or reference compounds were added and incubated for an additional 2 days. On day 10, 20 μl of MTT reagent (5 mg/ml) was added to each well of the cell culture plate and incubated for 4 h. The cell culture media was removed and 100 μl DMSO was added to each well. The 96-well cell culture plates were shaked horizontally for 10 min and readed in a Varioskan Flash plate reader (Thermo Fisher Scientific) at 520 and 690 nm. The obtained 520 nm absorbance readings substracting corresponding 690 nm reading were analyzed using a commercial graphic software (GraphPad Prism 5) and plotted against the Log scale of the compound concentrations.

[4] = SW620 cells, medium containing 1.5 μg/ml MMS, 5 days (120 hours), MTT
[5] = T47D cells, 100 nM MMS, 24 hours, intracellular caspase-3 activity

| IC50 [1, 4] [nM] | EC50 [2, 5] [nM] | IC50 ([1]; Homo sapiens, SW-620, 120 h) [nM] | EC50 ([2]; Homo sapiens, T47D, 24 h) [nM] | IC50 [3] [nM] | Structure (SMILES) |
| --- | --- | --- | --- | --- | --- |
| 82 | 350 | – | – | – | CC1CCCc2c1c(=O)[nH]c(=O)n2Cc1ccc(F)c(C(=O)N2CCN(c3ccccn3)CC2)c1 (stereo not drawn) [Example 58, 1-(4-Fluoro-3-(4-(pyridin-2-yl)piperazine-1-carbonyl)benzyl)-5-methyl-5,6,7,8-tetrahydroquinazoline-2,4(1H,3H)-dione] |
| – | – | 42 | 402 | – | CC(=O)N1CCN(C(=O)c2cc(Cn3c4c(c(=O)[nH]c3=O)CCCC4)ccc2F)CC1 [Example 34, 1-(4-Fluoro-3-(4-acetylpiperazine-1-carbonyl)benzyl)-5,6,7,8-tetrahydroquinazoline-2,4(1H,3H)-dione] |
| – | – | 5.3 | 7.2 | 123 | O=C(c1ccc(F)c(Cn2c3c(c(=O)[nH]c2=O)CCCC3)c1)N1CCN(C(=O)C2CCCCC2)CC1 [Example 49, 1-(6-Fluoro-3-(4-(cyclohexylcarbonyl)piperazine-1-carbonyl)benzyl)-5,6,7,8-tetrahydroquinazoline-2,4(1H,3H)-dione] |
| – | – | 6.9 | 31 | 32 | O=C(c1cccc(Cn2c3c(c(=O)[nH]c2=O)CCCC3)c1)N1CCN(c2ccccn2)CC1 [Example 11, 1-(3-(4-(Pyridin-2-yl)piperazine-1-carbonyl)benzyl)-5,6,7,8-tetrahydroquinazoline-2,4(1H,3H)-dione] |
| – | – | 14 | 48 | – | COc1ccc(C(=O)N2CCN(C(=O)c3cc(Cn4c5c(c(=O)[nH]c4=O)CCCC5)ccc3F)CC2)cc1 [Example 37, 1-(4-Fluoro-3-(4-(4-methoxybenzoyl)piperazine-1-carbonyl)benzyl)-5,6,7,8-tetrahydroquinazoline-2,4(1H,3H)-dione] |
| – | – | 15 | 3.5 | 22 | O=C(c1cccc(Cn2c3c(c(=O)[nH]c2=O)CCCC3)c1)N1CCN(c2ncccn2)CC1 [Example 5, 1-(3-(4-(Pyrimidin-2-yl)piperazine-1-carbonyl)benzyl)-5,6,7,8-tetrahydroquinazoline-2,4(1H,3H)-dione] |
| – | – | 10 | 13 | 703 | O=C(c1ccsc1)N1CCN(C(=O)c2ccc(F)c(Cn3c4c(c(=O)[nH]c3=O)CCCC4)c2)CC1 [Example 46, 1-(6-Fluoro-3-(4-(thiophene-3-carbonyl)piperazine-1-carbonyl)benzyl)-5,6,7,8-tetrahydroquinazoline-2,4(1H,3H)-dione] |
| – | – | 18 | 138 | – | CCS(=O)(=O)N1CCN(C(=O)c2cc(Cn3c4c(c(=O)[nH]c3=O)CCCC4)ccc2F)CC1 [Example 29, 1-(4-Fluoro-3-(4-ethylsulfonylpiperazine-1-carbonyl)benzyl)-5,6,7,8-tetrahydroquinazoline-2,4(1H,3H)-dione] |
| – | – | 2.3 | 5.6 | 93 | O=C(c1cc(Cn2c3c(c(=O)[nH]c2=O)CCCC3)ccc1F)N1CCN(c2ccccn2)CC1 [Example 26, 1-(4-Fluoro-3-(4-(pyridin-2-yl)piperazine-1-carbonyl)benzyl)-5,6,7,8-tetrahydroquinazoline-2,4(1H,3H)-dione] |
| – | – | 13 | 43 | – | O=C(c1cccc(Cn2c3c(c(=O)[nH]c2=O)CCCC3)c1)N1CCN(c2cnccn2)CC1 [Example 16, 1-(3-(4-(Pyrazin-2-yl)piperazine-1-carbonyl)benzyl)-5,6,7,8-tetrahydroquinazoline-2,4(1H,3H)-dione] |
| – | – | 36 | 325 | – | O=C(c1ccccc1)N1CCN(C(=O)c2cccc(Cn3c4c(c(=O)[nH]c3=O)CCCC4)c2)CC1 [Example 10, 1-(3-(4-Benzoylpiperazine-1-carbonyl)benzyl)-5,6,7,8-tetrahydroquinazoline-2,4(1H,3H)-dione] |
| – | – | 120 | > 1000 | – | O=C(c1cccc(Cn2c3c(c(=O)[nH]c2=O)CCCC3)c1)N1CCN(C(=O)C2CC2)CC1 [Example 6, 1-(3-(4-(Cyclopropylcarbonyl)piperazine-1-carbonyl)benzyl)-5,6,7,8-tetrahydroquinazoline-2,4(1H,3H)-dione] |
| – | – | 25 | 324 | – | O=C(c1cc(Cn2c3c(c(=O)[nH]c2=O)CCCC3)ccc1F)N1CCN(C(=O)C2CC2)CC1 [Example 19, 1-(4-Fluoro-3-(4-(cyclopropylcarbonyl)piperazine-1-carbonyl)benzyl)-5,6,7,8-tetrahydroquinazoline-2,4(1H,3H)-dione] |
| – | – | 31 | 295 | – | CCN1CCN(C(=O)c2cc(Cn3c4c(c(=O)[nH]c3=O)CCCC4)ccc2F)CC1 [Example 31, 1-(4-Fluoro-3-(4-ethylpiperazine-1-carbonyl)benzyl)-5,6,7,8-tetrahydroquinazoline-2,4(1H,3H)-dione] |
| – | – | > 10000 | > 10000 | – | O=C(c1ccccc1Cn1c2c(c(=O)[nH]c1=O)CCCC2)N1CCN(c2ncccn2)CC1 [Example 56, 1-(2-(4-(Pyrimidin-2-yl)piperazine-1-carbonyl)benzyl)-5,6,7,8-tetrahydroquinazoline-2,4(1H,3H)-dione] |
| – | – | 42 | 309 | – | O=C(c1cc(Cn2c3c(c(=O)[nH]c2=O)CCCCC3)ccc1F)N1CCN(c2ncccn2)CC1 [Example 59, 1-(4-Fluoro-3-(4-(pyrimidin-2-yl)piperazine-1-carbonyl)benzyl)-6,7,8,9-tetrahydro-1H-cyclohepta[d]pyrimidine-2,4(3H,5H)-dione] |
| – | – | 6.3 | 27 | – | O=C(c1ccc(F)cc1)N1CCN(C(=O)c2cc(Cn3c4c(c(=O)[nH]c3=O)CCCC4)ccc2F)CC1 [Example 32, 1-(4-Fluoro-3-(4-(4-fluorobenzoyl)piperazine-1-carbonyl)benzyl)-5,6,7,8-tetrahydroquinazoline-2,4(1H,3H)-dione] |
| – | – | > 10000 | > 10000 | – | O=C(c1ccc(Cn2c3c(c(=O)[nH]c2=O)CCCC3)cc1)N1CCN(c2ncccn2)CC1 [Example 55, 1-(4-(4-(Pyrimidin-2-yl)piperazine-1-carbonyl)benzyl)-5,6,7,8-tetrahydroquinazoline-2,4(1H,3H)-dione] |
| – | – | 21 | 62 | – | O=C(c1cccc(Cn2c3c(c(=O)[nH]c2=O)CCCC3)c1)N1CCN(C(=O)c2cccs2)CC1 [Example 7, 1-(3-(4-(Thiophene-2-carbonyl)piperazine-1-carbonyl)benzyl)-5,6,7,8-tetrahydroquinazoline-2,4(1H,3H)-dione] |
| – | – | 16 | 24 | – | O=C(c1ccc(F)c(Cn2c3c(c(=O)[nH]c2=O)CCCC3)c1)N1CCN(C(=O)c2ccco2)CC1 [Example 52, 1-(6-Fluoro-3-(4-(furan-2-carbonyl)piperazine-1-carbonyl)benzyl)-5,6,7,8-tetrahydroquinazoline-2,4(1H,3H)-dione] |
| – | – | 107 | 532 | – | O=C(c1cc(Cn2c3c(c(=O)[nH]c2=O)CCCC3)ccc1F)N1CCC(c2ccccc2)CC1 [Example 54, 1-(4-Fluoro-3-(4-phenylpiperidine-1-carbonyl)benzyl)-5,6,7,8-tetrahydroquinazoline-2,4(1H,3H)-dione] |
| – | – | 13 | 26 | – | O=C(c1ccccc1)N1CCN(C(=O)c2ccc(F)c(Cn3c4c(c(=O)[nH]c3=O)CCCC4)c2)CC1 [Example 48, 1-(6-Fluoro-3-(4-benzoylpiperazine-1-carbonyl)benzyl)-5,6,7,8-tetrahydroquinazoline-2,4(1H,3H)-dione] |
| – | – | 11 | 20 | – | O=C(c1cccc(Cn2c3c(c(=O)[nH]c2=O)CCCC3)c1)N1CCN(c2nccs2)CC1 [Example 8, 1-(3-(4-(Thiazol-2-yl)piperazine-1-carbonyl)benzyl)-5,6,7,8-tetrahydroquinazoline-2,4(1H,3H)-dione] |
| – | – | 33 | 374 | – | O=C(c1cccc(Cn2c3c(c(=O)[nH]c2=O)CCCC3)c1)N1CCN(C(=O)c2ccco2)CC1 [Example 13, 1-(3-(4-(Furan-2-carbonyl)piperazine-1-carbonyl)benzyl)-5,6,7,8-tetrahydroquinazoline-2,4(1H,3H)-dione] |
| – | – | 221 | 429 | – | CC1CCc2c(c(=O)[nH]c(=O)n2Cc2ccc(F)c(C(=O)N3CCN(c4ncccn4)CC3)c2)C1 (stereo not drawn) [Example 57, 1-(4-Fluoro-3-(4-(pyrimidin-2-yl)piperazine-1-carbonyl)benzyl)-6-methyl-5,6,7,8-tetrahydroquinazoline-2,4(1H,3H)-dione] |
| – | – | 22 | 35 | – | O=C(c1cccc(Cn2c3c(c(=O)[nH]c2=O)CCCC3)c1)N1CCN(C(=O)C2CCC2)CC1 [Example 14, 1-(3-(4-(Cyclobutylcarbonyl)piperazine-1-carbonyl)benzyl)-5,6,7,8-tetrahydroquinazoline-2,4(1H,3H)-dione] |
| 138 | 402 | – | – | – | O=C(c1cccc(Cn2c3c(c(=O)[nH]c2=O)CCC3)c1)N1CCN(c2ncccn2)CC1 [Example 45] |
| – | – | 31 | 72 | – | O=C(c1ccsc1)N1CCN(C(=O)c2cccc(Cn3c4c(c(=O)[nH]c3=O)CCCC4)c2)CC1 [Example 15, 1-(3-(4-(Thiophene-3-carbonyl)piperazine-1-carbonyl)benzyl)-5,6,7,8-tetrahydroquinazoline-2,4(1H,3H)-dione] |
| – | – | 9.7 | 62 | – | O=C(c1cccc(Cn2c3c(c(=O)[nH]c2=O)CCCC3)c1)N1CCN(C(=O)C2CCCCC2)CC1 [Example 12, 1-(3-(4-(Cyclohexylcarbonyl)piperazine-1-carbonyl)benzyl)-5,6,7,8-tetrahydroquinazoline-2,4(1H,3H)-dione] |
